Assay results as given in US20250179299A1, “DYES FOR MONITORING CELL STATES” (SUNNYBROOK RESEARCH INSTITUTE, priority 2022, published 2025).
Structures can show the parent of a compound that is named as a salt.

Tests used:
MCF-7 tumoral cells = test: Staining of live MCF-7 cells with 1 μM dye (microscopy); type: cell-based, human
Experimental: FIGS. 14A-J depict microscopy images showing staining of MCF7 cells with 1 μM of the following dyes: MT3 (FIG. 14A), MT20 (FIG. 14B), MT21 (FIG. 14C), MT22 (FIG. 14D), MT23 (FIG. 14E), MT24 (FIG. 14F), MT25 (FIG. 14G), MT26 (FIG. 14H), MT27 (FIG. 14I), and MT28 (FIG. 14J). Scale bar, 25 μm.
Used at a standard 1 μM concentration, the proposed dyes produce varying staining patterns and intensities. Furthermore, the proposed dyes display fluorescent properties only when labelling cell organelles and can therefore be used directly without washing steps.

[1] = tested on: primary cells (lymphocytes) and cell lines (tumoral); test: Fluorescence change of dye-stained cells after treatment with agents that induce cell death; type: cell-based; conditions: for fluorescence intensity relative to MT4 and MT5 / signal-to-noise ratio relative to MT4 and MT5: low micromolar staining concentrations (e.g., 1 μM); for change in fluorescence intensity of the dye after treatment with cell-death inducing agents: staurosporine, or AZD 5991 plus A1331852, in cells sensitive to these drugs but not in chemoresistant cells
Experimental: FIG. 1 depicts microscopy images showing fluorescence change of MT2 and reference dyes following drug treatment of primary lymphocytes. Primary lymphocytes were cultured for 24 hrs with 1 μM Staurosporine (STS, pan-kinase inhibitor) or DMSO (solvent control). Cells were stained with Hoechst (left images), tetramethylrhodamine ethyl ester (TMRE) (middle images) and MT2 (right images). Scale bar, 20 μm.
(§1) MCF10A cells were cultured for 24 hrs prior to 72 hr dual treatment with 0.312 μM each of AZD 5991 (Bcl-XL inhibitor) and A1331852 (MCL-1 inhibitor) or DMSO (solvent control). FIG. 2A: cells were stained with Hoechst (left images), TMRE (middle images) and MT3 (right images). Scale bar, 100 μm. FIGS. 2B-E: comparison of the staining pattern of Hoechst, MT3, and TMRE in control and treated MCF10A epithelial breast cells.
(§2) FIG. 3 depicts microscopy images showing fluorescence change of 1 μM MT3 and reference dyes following drug treatment of CAMA-1 luminal-type human breast cancer cells. CAMA-1 cells were cultured for 24 hrs prior to 72 hr dual treatment with 0.312 μM each of AZD 5991 (Bcl-XL inhibitor) and A1331852 (MCL-1 inhibitor) or DMSO (solvent control). Cells were stained with Hoechst (left images), TMRE (middle images) and MT3 (right images). Scale bar, 100 μm.
(§3) FIG. 4 depicts microscopy images showing fluorescence change of MT3 and reference dyes following drug treatment of MCF-7 human epithelial breast adenocarcinoma cells. MCF-7 cells were cultured for 24 hrs prior to 72 hr dual treatment with 0.312 μM each of AZD 5991 (Bcl-XL inhibitor) and A1331852 (MCL-1 inhibitor) or DMSO (solvent control). Cells were stained with Hoechst (left images), TMRE (middle images) and MT3. Scale bar, 100 μm.
as §2, with “FIG. 5” for “FIG. 3”, “of” for “of 1 μM”, “of Zr-75-1 epithelial” for “of CAMA-1 luminal-type human”, “breast ductal carcinoma” for “breast cancer”, “cells. Zr-75-1” for “cells. CAMA-1”
as §3, with “FIG. 6” for “FIG. 4”, “of MDA-MB-231” for “of MCF-7 human”, “cells. MDA-MB-231” for “cells. MCF-7”, “and MT3 (right images).” for “and MT3.”
as §3, with “FIG. 7” for “FIG. 4”, “of MDA-MB-468” for “of MCF-7 human”, “cells. MDA-MB-468” for “cells. MCF-7”
as §2, with “FIG. 8” for “FIG. 3”, “of” for “of 1 μM”, “of T47D epithelial” for “of CAMA-1 luminal-type human”, “breast ductal carcinoma” for “breast cancer”, “cells. T47D” for “cells. CAMA-1”
(§4) These changes in fluorescence emission properties were shared by all dyes tested (MT2-MT5).

[2] = tested on: MCF10A epithelial breast cells; test: Staining of control and drug-treated MCF10A cells; type: cell-based
Experimental: FIGS. 2A-E depict microscopy images showing fluorescence change of 1 μM MT3 and reference dyes following drug treatment of non-tumorigenic MCF10A epithelial breast cells.
as §1, §4
In the figures, Hoechst stains DNA in the nucleus, and if the nucleus condenses that staining becomes bright (i.e., more dye per unit area). […] In FIG. 2E, the TMRE staining has almost completely disappeared in drug treated cells, whereas MT3 is staining the nuclei. […] FIGS. 7 and 8 have similar lack of staining for TMRE, FIG. 7 is similar to FIG. 4 where the staining with Hoechst and MT3 are mutually exclusive, and FIG. 8 is similar to FIG. 3 where MT3 is staining nuclei where the Hoechst has not condensed.

[3] = tested on: Zr-75-1 epithelial breast ductal carcinoma cells; test: MT3 staining of drug-treated chemoresistant Zr-75-1 cells; type: cell-based; conditions: 72 hr 0.312 μM each AZD 5991 and A1331852
Experimental: as §2, with “FIG. 5” for “FIG. 3”, “of” for “of 1 μM”, “of Zr-75-1 epithelial” for “of CAMA-1 luminal-type human”, “breast ductal carcinoma” for “breast cancer”, “cells. Zr-75-1” for “cells. CAMA-1”
as §4

[4] = tested on: MCF-7 breast epithelial cancer cells; test: MT2 staining of MCF-7 cells treated with inducers of autophagy, ER stress or apoptosis; type: cell-based, human; conditions: 1-5 μM MT2; Rapamycin, Thapsigargin, or TNFα and CHx; excitation 488 nm, emission 520, 600, 690 nm
Experimental: FIG. 9 depicts microscopy images showing fluorescence change of MT2 and reference dyes following drug treatment of MCF-7 human epithelial breast adenocarcinoma cells. MCF-7 cells were cultured for 12 hrs in standard conditions and treated with drugs to induce autophagy (Rapamycin), endoplasmic reticulum stress (Thapsigargin), apoptosis (Tumor Necrosis Factor alpha, TNFα, and Cyclohexamide, CHx), or solvent control (DMSO). Dye MT2 was excited at 488 nm, and emission was simultaneously collected at three wavelengths, 520 nm (Green), 600 nm (Red), and 690 (Far Red) nm.
The dye was excited at 488 nm, and emission was simultaneously collected at three wavelengths, 520 (Green), 600 (Red), and 690 (Far Red) nm. […] Image analysis by machine-learning algorithms trained on measurements of cellular intensity, morphology, and texture features permits to distinguish treatment-specific phenotypic states.

Compound: Cc1cccc(N(c2cccc(C)c2)c2ccc3cc(/C=C/c4cc[n+](CC(O)C[N+](C)(C)CCO)cc4)ccc3c2)c1 (centres unmarked) [MT28, 4-[(1E)-2-{6-[Bis(3-methylphenyl)amino]naphthalen-2-yl}ethenyl]-1-{2-hydroxy-3-[(2 hydroxyethyl)dimethylazaniumyl]propyl}pyridin-1-ium dibromide]
- ability to stain live cells (MCF-7 tumoral cells): able to stain live cells
- cell permeability (MCF-7 tumoral cells): cell-permeable

Compound: CC(C)=CCN(CC=C(C)C)c1ccc2cc(/C=C/c3cc[n+](CCCS(=O)(=O)[O-])cc3)ccc2c1F [MT25, 4-[(1E)-2-{6-[Bis(3-methylbut-2-en-1-yl)amino]-5-fluoronaphthalen-2-yl}ethenyl]-1-(3-sulfopropyl)pyridin-1-ium]
- cell permeability (MCF-7 tumoral cells): cell-permeable

Compound: Cc1cccc(N(c2cccc(C)c2)c2ccc3cc(/C=C/c4cc[n+](CCCS(=O)(=O)[O-])cc4)c4ccccc4c3c2)c1 [MT20, (E)-3-(4-(2-(3-(di-m-tolylamino)phenanthren-9-yl)vinyl)pyridin-1-ium-1-yl)propane-1-sulfonate]
- ability to stain live cells (MCF-7 tumoral cells): able to stain live cells
- cell permeability (MCF-7 tumoral cells): cell-permeable

Compound: Cc1cccc(N(c2cccc(C)c2)c2ccc3cc(/C=C/c4cc[n+](CCCS(=O)(=O)[O-])cc4)ccc3c2)c1 [MT3, 4-(2-[6-(dim-tolylamino)-2-naphthalenyl]ethenyl)-1-(3-sulfopropyl) pyridinium Inner Salt]
- ability to stain live cells (MCF-7 tumoral cells): able to stain live cells
- cell permeability (MCF-7 tumoral cells): cell-permeable
- fluorescence intensity relative to MT4 and MT5 [1]: better fluorescence intensity
- signal-to-noise ratio relative to MT4 and MT5 [1]: better signal-to-noise ratios
- change in fluorescence intensity of the dye after treatment with cell-death inducing agents [1]: increase in fluorescence intensity
- staining intensity of drug-treated dying cells ([2]; MCF10A, 1 μM MT3, 72 hr 0.312 μM each AZD 5991 and A1331852, normal cells stained with different intensities): very brightly
- staining of cells with condensed nuclei (Hoechst staining) [3]: did not show bright MT3 staining

Compound: tetramethylrhodamine ethyl ester [TMRE, reference compound]
- staining of drug-treated dying cells relative to control cells ([2]; 72 hr 0.312 μM each AZD 5991 and A1331852 (FIGS. 2E and 3)): low staining

Compound: CC(C)CCN(CCC(C)C)c1ccc2cc(/C=C/c3cc[n+](CCCS(=O)(=O)[O-])c4ccccc34)ccc2c1 [MT2, 4-(2-[6-(diisopentylamino)-2-naphthalenyl]ethenyl)-1-(3-sulfopropyl)quinolinium inner salt]
- fluorescence intensity relative to MT4 and MT5 [1]: better fluorescence intensity
- signal-to-noise ratio relative to MT4 and MT5 [1]: better signal-to-noise ratios
- change in fluorescence intensity of the dye after treatment with cell-death inducing agents [1]: increase in fluorescence intensity
- staining pattern across phenotypic states (autophagy, ER stress, apoptosis) [4]: different staining patterns

Compound: Cc1cccc(N(c2cccc(C)c2)c2ccc3cc(/C=C/c4cc[n+](CCCS(=O)(=O)[O-])cc4F)ccc3c2)c1 [MT23, 4-[(1E)-2-{6-[Bis(3-methylphenyl)amino]naphthalen-2-yl}ethenyl]-3-fluoro-1-(3-sulfopropyl)pyridin-1-ium]
- cell permeability (MCF-7 tumoral cells): cell-permeable

Compound: Cc1cccc(N(c2cccc(C)c2)c2ccc3cc(/C=C(\F)c4cc[n+](CCCS(=O)(=O)[O-])cc4)ccc3c2)c1 [MT24, 4-[(1Z)-2-{6-[Bis(3-methylphenyl)amino]naphthalen-2-yl}-1-fluoroethenyl]-1-(3-sulfopropyl)pyridin-1-ium]
- cell permeability (MCF-7 tumoral cells): cell-permeable

Compound: Cc1cccc(N(c2cccc(C)c2)c2ccc3cc(/C=C/c4cc[n+](CCC[N+](C)(C)C)cc4)ccc3c2)c1 [MT27, 4-[(1E)-2-{6-[Bis(3-methylphenyl)amino]naphthalen-2-yl}ethenyl]-1-[3-(trimethylazaniumyl)propyl]pyridin-1-ium dibromide]
- ability to stain live cells (MCF-7 tumoral cells): able to stain live cells
- cell permeability (MCF-7 tumoral cells): cell-permeable

Compound: Cc1cccc(N(c2cccc(C)c2)c2ccc3cc(/C=C/c4cc[n+](CCCCS(=O)(=O)[O-])cc4)ccc3c2)c1 [MT21, (E)-4-(4-(2-(6-(di-m-tolylamino)naphthalen-2-yl)vinyl)pyridin-1-ium-1-yl)butane-1-sulfonate]
- ability to stain live cells (MCF-7 tumoral cells): able to stain live cells
- cell permeability (MCF-7 tumoral cells): cell-permeable

Compound: CC(C)=CCN(CC=C(C)C)c1ccc2cc(/C=C/c3cc[n+](CCCS(=O)(=O)[O-])cc3)ccc2c1 [MT22, (E)-3-(4-(2-(6-(bis(3-methylbut-2-en-1-yl)amino)naphthalen-2-yl)vinyl)pyridin-1-ium-1-yl)propane-1-sulfonate]
- ability to stain live cells (MCF-7 tumoral cells): able to stain live cells
- cell permeability (MCF-7 tumoral cells): cell-permeable

Compound: CC(C)=CCN(CC=C(C)C)c1ccc2cc(/C=C/c3cc[n+](CCCS(=O)(=O)[O-])cc3)ccc2c1C(F)(F)F [MT26, 4-[(1E)-2-{6-[Bis(3-methylbut-2-en-1-yl)amino]-5-(trifluoromethyl)naphthalen-2-yl}ethenyl]-1-(3-sulfopropyl)pyridin-1-ium]
- cell permeability (MCF-7 tumoral cells): cell-permeable
